Data: ChEMBL document CHEMBL5131439, “Triproamide and Pemukainalides, Cyclic Depsipeptides from the Marine Cyanobacterium Symploca hydnoides” (J Nat Prod, 2022)
Starred links: 1 amine or outer side, 2 acyl side, 3 side chain; linkers in the order of their positions; H or OH if unused. Non-standard residues stand in square brackets, D forms with d. Residues, ends and D or L forms follow the SMILES beside them. X1 = C[C@H](Cc1ccccc1)[C@H](N[*:1])C(=O)[*:2]; X2 = CC(C)[C@@H](N[*:1])[C@@H](C)C(=O)[*:2]; dNMeV = CN[C@@H](C(=O)O)C(C)C; dHiv = CC(C)[C@@H](O)C(=O)O; Lac = C[C@H](O)C(=O)O

Each compound was assayed on MOLT-4 (assay: Cytotoxicity against human MOLT-4 cells assessed as reduction in cell viability incubated for 24 hrs by MTT assay). Settings: MOLT-4, 24 h.
Type: functional, cell-based

Structure (SMILES)	IC50 [µM]
C#CCCC[C@@H]1OC(=O)[C@H](Cc2ccccc2)NC(=O)[C@H](C(C)C)NC(=O)[C@@H]2CCCN2C(=O)[C@@H]2CCCN2C(=O)[C@H](C)OC(=O)[C@@H](C(C)C)N(C)C(=O)[C@H](C(C)C)NC(=O)C1(C)C	5.9
CCCCC[C@@H]1OC(=O)[C@H](Cc2ccccc2)NC(=O)[C@H](C(C)C)NC(=O)[C@@H]2CCCN2C(=O)[C@@H]2CCCN2C(=O)[C@H](C)OC(=O)[C@@H](C(C)C)N(C)C(=O)[C@H](C(C)C)NC(=O)C1(C)C	37
C=CCCC[C@@H]1OC(=O)[C@H](Cc2ccccc2)NC(=O)[C@H](C(C)C)NC(=O)[C@@H]2CCCN2C(=O)[C@@H]2CCCN2C(=O)[C@H](C)OC(=O)[C@@H](C(C)C)N(C)C(=O)[C@H](C(C)C)NC(=O)C1(C)C	5.6
CC(C)[C@@H]1OC(=O)[C@H](C)[C@@H](C(C)C)NC(=O)[C@@H]2CCCN2C(=O)[C@H]([C@H](C)Cc2ccccc2)NC(=O)[C@@H]2CCCN2C(=O)[C@@H](C(C)C)OC(=O)[C@@H]2CCCN2C(=O)[C@@H](C(C)C)N(C)C1=O	23
CC(C)[C@H]1NC(=O)[C@@H]2CCCN2C(=O)[C@H]([C@H](C)Cc2ccccc2)NC(=O)[C@@H]2CCCN2C(=O)[C@@H](C(C)C)N(C)C(=O)[C@@H](C(C)C)OC(=O)[C@@H]2CCCN2C(=O)[C@H](C)OC(=O)[C@@H]1C (cyclo([Lac]P[dHiv][dNMeV]P[X1]P[X2]))	2.5
